Data reported in PubChem BioAssay (NCI).
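Dose response: 5 concentrations. Exposure: 48 h. Format: 96-well plates. Endpoint: linear interpolation; highest concentration if not reached. TGI denotes the concentration required for complete inhibition of growth.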

What was measured:
Test in all cases: growth of human tumour cells (NCI), 48 h
CAKI-1 renal = system: CAKI-1 renal
DMS 273 small cell lung = system: DMS 273 small cell lung
HCT-15 colon = system: HCT-15 colon
HL-60(TB) leukemia = system: HL-60(TB) leukemia
HT29 colon = system: HT29 colon
KM12 colon = system: KM12 colon
NCI-H522 lung = system: NCI-H522 lung
OVCAR-4 ovarian = system: OVCAR-4 ovarian
OVCAR-5 ovarian = system: OVCAR-5 ovarian
OVCAR-8 ovarian = system: OVCAR-8 ovarian
SF-268 CNS = system: SF-268 CNS
SK-MEL-2 melanoma = system: SK-MEL-2 melanoma
SNB-75 CNS = system: SNB-75 CNS
U251 CNS = system: U251 CNS
UACC-257 melanoma = system: UACC-257 melanoma
UACC-62 melanoma = system: UACC-62 melanoma
HS 578T breast = system: HS 578T breast
MCF7 breast = system: MCF7 breast
NCI-H226 lung = system: NCI-H226 lung
T-47D breast = system: T-47D breast

| SMILES | TGI (CAKI-1 renal) [µM] | TGI (DMS 273 small cell lung) [µM] | TGI (HCT-15 colon) [µM] | TGI (HL-60(TB) leukemia) [µM] | TGI (HT29 colon) [µM] | TGI (KM12 colon) [µM] | TGI (NCI-H522 lung) [µM] | TGI (OVCAR-4 ovarian) [µM] | TGI (OVCAR-5 ovarian) [µM] | TGI (OVCAR-8 ovarian) [µM] | TGI (SF-268 CNS) [µM] | TGI (SK-MEL-2 melanoma) [µM] | TGI (SNB-75 CNS) [µM] | TGI (U251 CNS) [µM] | TGI (UACC-257 melanoma) [µM] | TGI (UACC-62 melanoma) [µM] | TGI (HS 578T breast) [µM] | TGI (MCF7 breast) [µM] | TGI (NCI-H226 lung) [µM] | TGI (T-47D breast) [µM] |
| --- | --- | --- | --- | --- | --- | --- | --- | --- | --- | --- | --- | --- | --- | --- | --- | --- | --- | --- | --- | --- |
| COc1c2c(c(OC)c3c(=O)cc(C/C(=N/NC(=O)C[n+]4ccccc4)C(=O)Nc4cc(C)ccc4C)oc13)OCO2 | > 100 | > 100 | > 100 | > 100 | > 100 | > 100 | > 100 | > 100 | > 100 | > 100 | > 100 | > 100 | > 100 | > 100 | > 100 | > 100 |  |  |  |  |
| CCCCCCCCCCCCOCCCCCCCCC/C=C/c1ccc2c(c1)OCCOCCOCCOCCO2 | 33.5 |  | > 100 | > 100 | 45.4 | 31.1 | 28.3 | 45.1 | > 100 | 25.5 | 48.2 | 30.2 | 33.4 | 40.6 | 73.2 | 30.3 | 47.3 | 32 | 36.7 | 48.2 |
| CCCOP1(=O)C=C(C)C(Cl)=C(C)C1 (stereo unspecified) |  | 36.7 | 58.4 | 81.6 | 49.3 | 43 | 28.5 | 86.7 | 77.4 | > 100 | 45.2 | 32.2 | 92.6 | 59.3 | 45.7 | 32.4 |  |  | 52.2 |  |
| Cc1cccc(/C=N/NC(=S)NC2CCCCC2)n1 | > 100 |  | > 100 | > 44.5 | 42.1 | > 100 | > 64.3 | > 100 | > 100 | > 69 | > 100 | > 100 | > 100 | > 87.8 | > 84.5 | 59.2 | > 100 | > 100 | > 74.8 | > 86.3 |
| CC(C)(C)c1cc(C(C)(C)C)c(P=C(Cl)Cl)c(C(C)(C)C)c1 (stereo unspecified) | > 100 |  | > 100 | > 100 | > 100 | > 100 | > 100 | > 100 | > 100 | > 100 | > 100 | > 100 | > 100 | > 100 | > 100 | > 100 | > 100 | > 100 | > 100 | > 100 |
| Cc1cc2c(c(C=Nc3ccc(N(C)C)cc3)c1)OC1(C=C2)Oc2ccccc2C(=O)N1C (stereo unspecified) | 28 |  | 27.6 | 19.9 | 57.2 | 31 | 36.9 | 25.1 | 32.4 | 42.9 | 45.4 | > 54.8 | 39.5 | 28.7 | 28.1 | 26.7 | > 90.4 | 37.9 | 70.2 | 57.5 |
| CC1=CC(=C(c2ccc(N)c(C)c2)c2ccc(N)c(C)c2)C=CC1=N | 62.4 | 10.8 | > 61.4 | 17.5 | 15.6 | 12.8 | 13.6 | 52.8 | > 84.4 | 18.3 | 17.8 | 7.48 | 8.91 | 12.8 | 15.7 | 10.2 |  |  | 33.6 |  |
| CC12CC(=O)OC(Cc3ccccc31)O2 (stereo unspecified) |  | > 100 |  | > 100 | > 100 | > 100 | > 100 |  |  | > 100 | > 100 | > 100 | > 100 | > 100 | > 100 | > 100 |  |  | > 100 |  |
| N#CC12CCC(O)C(CC1)C2=O (stereo unspecified) | > 100 | > 100 | > 100 | > 100 | > 100 | > 100 | > 100 | > 100 | > 100 | > 100 | > 100 | > 100 | > 100 | > 100 | > 100 | > 100 |  |  | > 100 |  |
| N#CCN(Cc1ccccc1)[C@H]1CCC[C@]1(O)/C=C/c1ccc2c(c1)OCO2 | > 100 |  | 60.2 | 34.9 | 29.8 | 45.3 | 32.1 | > 100 | > 100 | 32.5 | > 100 | 42.8 | > 100 | 38.6 | 58 | 37.9 | 43 | 39.6 | 44.4 | 46.4 |
| COc1ccc(/C=C/C(=O)c2cccc(C(=O)/C=C/c3ccc(OC)c(OC)c3)n2)cc1OC | > 100 |  | 55 | 92.2 | 31.6 | > 100 | 23.1 | > 100 | > 91.2 | 18.3 | > 89.3 | > 100 | > 100 | > 55.7 | 99.4 | > 57.4 | > 95.5 | > 100 | > 100 | > 100 |
| COc1cc(/C=C2\N=C(c3ccccc3)N(c3ccc(S(=O)(=O)Nc4nccs4)cc3)C2=O)ccc1O | > 100 |  | > 100 | > 100 | > 100 | > 100 | > 100 | > 100 | > 100 | > 100 | > 100 | > 100 | > 100 | > 100 | > 100 | > 100 | > 100 | > 100 | > 100 | > 100 |
| CCCCC1=C(C(=O)N2CCOCC2)C2(OCCO2)C1Cl (stereo unspecified) | 86.5 |  | > 100 | > 100 | 78.6 | 41.5 | 99.3 | > 100 | 45.5 | > 100 | > 100 | 51.6 | > 100 | > 100 | 60.9 | > 100 | > 100 | > 100 | > 100 | > 100 |
